Measured values reported in publication PMC9686747, “Antioxidant, Anti-α-Glucosidase, Antityrosinase, and Anti-Inflammatory Activities of Bioactive Components from Morus alba” (Antioxidants, 2022).
Where two headings read alike, the source gives them in different places.

Columns and labels:
[1] = Ferric reducing antioxidant power (FRAP); type: biochemical
Method: The FRAP assay was performed using a previously described procedure. This experiment needs to be performed in the dark. First, the reaction reagent was obtained by mixing acetate buffer (pH 3.6), ferric chloride solution (20 mM), and TPTZ solution (10 mM TPTZ in 40 mM HCl) in a ratio of 10:1:1, respectively. Next, 900 μL of the reaction reagent was mixed with 100 μL of the sample or Trolox in an Eppendorf tube, and the absorbance was measured at 593 nm after 40 min in a dry bath at 37 °C. The FRAP of the extracts was determined by a linear standard calibration curve from 0 to 100 mM Trolox with an R^2 value of 0.9999.

[2] = DPPH radical scavenging activity; type: biochemical; conditions: for EC50: isolated components, read-out: SC50 DPPH
Method: This assay was performed using a previously reported procedure. This experiment needs to be performed in the dark. Briefly, 100 µL of varying concentrations of extracts or compounds were mixed with 100 µL of 200 µM DPPH solution and incubated at room temperature for 30 min, and the absorbance was measured at 520 nm. DPPH radical scavenging activity was calculated using the following equation.
DPPH scavenging activity (%) = (A0 − A1)/A0 × 100, where A1 is the absorbance of the test sample, and A0 is the absorbance of the control (untreated group).

[3] = ABTS radical scavenging activity; type: biochemical; conditions: for EC50: isolated components, read-out: SC50 ABTS
Method: This assay was performed using a previously reported procedure. This experiment needs to be performed in the dark. First, the reaction reagent was prepared by mixing 28 mM ABTS solution and 9.6 mM potassium persulfate solution (v/v, 1/1) and left in the dark at 4 °C for 16 h before use. The reaction reagent was diluted with ethanol until the absorbance was 0.70 ± 0.02 at 740 nm. Next, 10 μL of the extract or compound was mixed with 190 μL of the reaction reagent and incubated at room temperature for 5 min before measuring the absorbance at 740 nm. The formula of scavenging activity was calculated as follows.
ABTS radical scavenging activity (%) = (A0 − A1)/A0 × 100, where A0 and A1 are the absorbance of the control (untreated group) and test sample, respectively.

tyrosinase = target: T1, tyrosinase (Agaricus bisporus, UniProt C7FF04); experiment: Tyrosinase inhibitory activity assay; type: biochemical
T1 construct: purchased Sigma-Aldrich
T1 sequence (C7FF04 1-392 limits assumed): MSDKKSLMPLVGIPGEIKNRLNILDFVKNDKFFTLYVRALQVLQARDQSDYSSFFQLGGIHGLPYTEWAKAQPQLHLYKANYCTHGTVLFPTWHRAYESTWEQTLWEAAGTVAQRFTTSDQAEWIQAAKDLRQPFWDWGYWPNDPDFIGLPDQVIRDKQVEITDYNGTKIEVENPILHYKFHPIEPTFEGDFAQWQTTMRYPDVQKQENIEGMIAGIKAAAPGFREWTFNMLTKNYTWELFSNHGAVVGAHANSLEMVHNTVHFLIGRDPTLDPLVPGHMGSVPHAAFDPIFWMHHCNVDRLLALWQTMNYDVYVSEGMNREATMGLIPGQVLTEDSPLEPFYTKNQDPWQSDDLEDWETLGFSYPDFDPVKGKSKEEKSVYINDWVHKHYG

[4] = Superoxide radical scavenging activity; type: biochemical; conditions: isolated components; read-out: SC50 Superoxide
Method: This assay was performed using a previously reported procedure. This experiment needs to be performed in the dark. Initially, NBT (300 μM), NADH (468 μM), and PMS (120 μM) were prepared using Tris-HCl buffer (16 mM, pH 8.0). Next, 50 μL of NBT and PMS and 10 μL of the extract or compound were mixed; subsequently, 50 μL of NADH solution was added and incubated at room temperature for 5 min before measuring the absorbance at 560 nm. The equation for the scavenging activity is as follows.
Superoxide radical scavenging activity = (A0 − A1)/A0 × 100, where A0 and A1 are the absorbance of the control (untreated group) and test sample, respectively.

α-glucosidase = target: T2, α-glucosidase (Saccharomyces cerevisiae, UniProt P53341); experiment: biochemical; type: biochemical
T2 construct: purchased Sigma-Aldrich
T2 sequence (P53341 whole entry): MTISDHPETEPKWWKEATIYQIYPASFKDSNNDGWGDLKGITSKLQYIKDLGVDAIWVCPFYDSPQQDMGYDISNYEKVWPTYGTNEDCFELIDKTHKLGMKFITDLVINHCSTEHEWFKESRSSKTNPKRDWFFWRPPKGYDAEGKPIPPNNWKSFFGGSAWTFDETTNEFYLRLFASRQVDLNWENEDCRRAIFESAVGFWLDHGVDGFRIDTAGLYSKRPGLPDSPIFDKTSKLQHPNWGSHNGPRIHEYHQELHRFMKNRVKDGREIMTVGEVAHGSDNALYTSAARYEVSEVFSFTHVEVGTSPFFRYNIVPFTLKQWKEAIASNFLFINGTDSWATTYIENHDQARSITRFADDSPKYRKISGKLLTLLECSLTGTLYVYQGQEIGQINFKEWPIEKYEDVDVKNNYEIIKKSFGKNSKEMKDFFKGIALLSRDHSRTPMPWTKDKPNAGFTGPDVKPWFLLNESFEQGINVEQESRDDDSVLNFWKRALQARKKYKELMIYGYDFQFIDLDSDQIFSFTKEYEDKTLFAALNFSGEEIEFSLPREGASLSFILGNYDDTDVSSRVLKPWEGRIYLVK

[5] = test system: nitric oxide (NO) production in RAW 264.7 cells; experiment: Nitric oxide inhibitory assay (Griess) in LPS-induced RAW264.7 cells; type: cell-based, Murine; conditions: Mus musculus, LPS (100 ng/mL)-induced RAW 264.7 cells, read-out: NO Inhibition IC50
Method: (§1) Murine RAW264.7 macrophages were cultured at 37 °C under 5% CO2 using a culture medium that was a mixture of DMEM, 10% FBS, and 1% penicillin [29]. When the cells reached […] full growth, the seeded cells were subjected to NO measurement and iNOS protein assay.
The NO inhibition assay was performed as described in [29], with slight modification. RAW264.7 cells were seeded in 96 wells for 24 h. The next day, they were divided into the following groups: medium, medium with LPS (100 ng/mL) added, medium with the positive control (quercetin) and LPS added, and medium with samples and LPS (100 ng/mL) added. The reaction time between the medium and the sample was 1 h before adding LPS and waiting 20 h after adding LPS. Finally, half of the supernatant was transferred into a new 96-well plate and mixed in a 1:1 ratio with Griess reagent. After 15 min in the dark, the reaction was measured at 550 nm.

[6] = test system: inducible nitric oxide synthase (iNOS); experiment: Western blot analysis of iNOS expression; type: cell-based, Murine; conditions: LPS (100 ng/mL)-induced cells, 24 h; compared to the LPS-induced group; Figure 4
Method: as §1
Western blot analysis was performed according to the reference method, with slight modifications. Cells were cotreated with varying concentrations of samples and LPS (100 ng/mL) for 24 h. After washing the cells with ice-cold PBS, the proteins were collected with cell lysis buffer and stored at −20 °C for subsequent experiments. The quantified proteins were separated using a 10% SDS-polyacrylamide gel. Next, the proteins were transferred to polyvinylidene fluoride (PVDF) membranes by electrophoresis. The transferred PVDF membranes were immersed in 2% BSA blocking buffer for 2 h and washed two to three times with TBST. Proteins were visualized by specific primary antibodies and soaked overnight. The next day, PVDF membranes were subjected to the TBST wash step again to remove residual primary antibodies and soaked with secondary antibodies for 2 h. Finally, after repeating the TBST wash two to three times, immunoreactivity was detected with ECL reagents, and samples were exposed with a cold light meter and quantified with Image J.

RAW 264.7 cells = experiment: MTT assay, cell viability; type: cell-based, Murine
Method: as §1
The MTT assay was performed according to the reference method, with slight modifications. Cells from the 96-well plates prepared for the NO inhibition assay were added to MTT stock solution (5 mg/mL) and diluted 20-fold with medium. After 2 h, all liquid was removed, and DMSO was added. The absorbance was measured at 570 nm.

[7] = isolated components, mM Trolox equivalents per gram
[8] = solvent extracts, 50% free radical scavenging
[9] = isolated compounds, read-out: IC50 α-Glucosidase

| Compound | TE FRAP [1, 7] [mM/g] | EC50 [2] [µM] | EC50 [3] [µM] | IC50 (tyrosinase) [µM] | EC50 [4] [µM] | IC50 (α-glucosidase) [µM] | IC50 ([5]; isolated components) [µM] | IC50 (α-glucosidase; [9]) [µM] | further results |
| --- | --- | --- | --- | --- | --- | --- | --- | --- | --- |
| Cc1cc(C(C)(C)C)c(O)c(C(C)(C)C)c1 [BHT, butylated hydroxytoluene, reference compound] | 4385.56 ± 78.88 | 89.8 ± 7.03 | 116 ± 25.1 |  |  |  |  |  | TE FRAP ([1]; solvent extracts, mM Trolox equivalents per gram of extract): 4385.56 ± 45.54 mM/g; SC50 DPPH [2, 8]: 19.75 ± 1.79 µg/mL; SC50 ABTS [3, 8]: 25.87 ± 5.83 µg/mL |
| CC(C)=CCc1c(-c2ccc(O)cc2O)oc2c([C@H]3C=C(C)C[C@@H](c4ccc(O)cc4O)[C@@H]3C(=O)c3ccc(O)cc3O)c(O)cc(O)c2c1=O [Kuwanon G (5), kuwanon G] | 3549.22 ± 160.65 | > 200 | 9.28 ± 1.02 | 100 ± 9.62 | 188 ± 19.1 | 7 ± 0.31 | 17.8 ± 0.5 |  | TE FRAP ([1]; isolated components, mM Trolox equivalents per gram, listed as 5): 3549.22 ± 160.65 mM/g |
| CC(C)=CCc1c(O)ccc(C(=O)[C@@H]2[C@@H](c3c(O)cc(O)c4c(=O)c(CC=C(C)C)c(-c5ccc(O)cc5O)oc34)C=C(C)C[C@H]2c2ccc(O)cc2O)c1O [Kuwanon H (6), kuwanon H] | 1750.96 ± 36.30 | > 200 | 8.68 ± 0.93 | 218 ± 41 | > 200 |  | 40.5 ± 4.38 | 4.06 ± 0.12 | α-glucosidase inhibition, times more effective than acarbose (α-glucosidase; versus positive control acarbose): approximately 100 times; α-glucosidase inhibition, times more potent than other compounds (α-glucosidase; versus the other isolated compounds): 2–20 times |
| O=c1c(O)c(-c2ccc(O)cc2O)oc2cc(O)cc(O)c12 [Morin (1), morin] | 2963.28 ± 63.65 | 17.5 ± 3.43 | 12.7 ± 5.98 | 199 ± 84.4 | 54.5 ± 19 | 90.1 ± 10.2 | 43.3 ± 4.61 |  | TE FRAP ([1]; isolated components, mM Trolox equivalents per gram, listed as 1): 2963.28 ± 63.65 mM/g |
| CC(C)=CCc1c(-c2ccc(O)cc2O)oc2c3c(cc(O)c2c1=O)OC(C)(C)C=C3 [Morusin (2), morusin] | 583.43 ± 25.79 | > 200 | 44.2 ± 8.07 | > 400 | > 200 |  | 9.87 ± 0.59 | 15.7 ± 2.15 | iNOS expression (Western blot) [6]: significantly reducing the expression of iNOS |
| Oc1cc(O)cc(/C=C/c2ccc(O)cc2O)c1 [Oxyresveratrol (3), oxyresveratrol] | 2402.22 ± 32.91 | 44.4 ± 12.5 | 9.5 ± 2.08 | 1.89 ± 0.59 | > 200 | 8.35 ± 0.46 | 25.4 ± 3.47 |  | TE FRAP ([1]; isolated components, mM Trolox equivalents per gram, listed as 3): 2402.22 ± 32.91 mM/g |
| O=c1c(O)c(-c2ccc(O)c(O)c2)oc2cc(O)cc(O)c12 [Quercetin, quercetin, reference compound] |  |  |  |  |  |  | 13.2 ± 2 |  | cell viability (MTT) (RAW 264.7 cells; isolated compounds, Figure 3, except for the high dose of 100 μM): slight cytotoxicity at higher doses; cell viability (MTT) (RAW 264.7 cells; solvent extracts, Figure 1): slight cytotoxicity at higher doses; IC50 ([5]; solvent extracts): 3.98 ± 0.28 µg/mL |
| O=c1ccc2ccc(O)cc2o1 [Umbelliferone (4), umbelliferone] | 145.23 ± 35.46 | > 200 | > 200 |  | > 200 |  | 36.8 ± 2.26 | 492 ± 12.8 | IC50 (tyrosinase; isolated compounds, read-out: IC50 Tyrosinase): > 400 µM |
